# Experimental data taken from paper PMC7169845, “Synthesis and Bioactivity of Phthalimide Analogs as Potential Drugs to Treat Schistosomiasis, a Neglected Disease of Poverty” (Pharmaceuticals, 2020).
# What was measured:
# [1] = test system: S. mansoni somules (schistosomula, post-infective larvae); assay: Phenotypic screen of S. mansoni somules (severity score); format: cell-based, Schistosoma mansoni; conditions: for Somule Severity Score (10 µM) 24 h: score 0 (no effect) to 4 (maximum), averaged across two experiments; for Somule Severity Score (10 µM) 24 h / SOMULE SEVERITY SCORES @ 10 µM, 24: 24 h; for SOMULE SEVERITY SCORES @ 10 µM, 24 / SOMULE SEVERITY SCORES @ 10 µM, 48 / SOMULE SEVERITY SCORES @ 10 µM, 72: score 0-4; for SOMULE SEVERITY SCORES @ 10 µM, 48 / Somule Severity Score (10 µM) 48 h: 48 h; for Somule Severity Score (10 µM) 48 h / Somule Severity Score (10 µM) 72 h: score 0 to 4; for SOMULE SEVERITY SCORES @ 10 µM, 72 / Somule Severity Score (10 µM) 72 h / SOMULE DESCRIPTORS @ 10 µM, 72 h: 72 h; for SOMULE DESCRIPTORS @ 10 µM, 72 h: phenotypic descriptors
# Method: (§1) Functionalized Pht-based molecules were synthesized, and phenotypically screened at 10 µM as a function of time against S. Mansoni somules (up to 72 h) and adults (up to 24 h). The resulting phenotypes were classified using a previously described nomenclature that records the many non-exclusive changes (descriptors) that can occur in the parasite in response to chemical insult. Each descriptor is converted into a value from 0 (no effect) to 4 (maximal effect) to allow for comparisons of effects on the parasite between compounds [40, 41, 42, 43]. For consistency, we consider a score of 2 to be the minimum for a compound to be considered active.
# (§2) Maintenance of the S. mansoni (Naval Medical Research Institute (NMRI) isolate), life cycle involved male Golden Syrian Hamsters and Biomphalaria glabrata snails (NMRI isolate), as the definitive and intermediate hosts, respectively. Use of hamsters was approved by the Institutional Animal Care and Use Committee of the University of California San Diego. The preparation of somules (post-infective larvae derived from infectious larvae called cercariae) and adult worms (≥42-days-old), and their co-incubation with test compounds using a customized Basch incubation medium were as described. Screens of two developmental stages were employed in order to identify compounds with a potential broader spectrum of efficacy than the current drug, PZQ, which is deficient in this regard. Screens with somules employed 96-well round-bottomed plates and 40–50 animals/well, whereas screens with adults employed 24-well flat-bottomed plates and approximately 5–7 males and 2–3 females/well. Screens employed a final compound concentration of 10 µM in DMSO (at 0.5% and 0.1% final concentrations for somules and adults, respectively). The complex and often dynamic phenotypic responses that the schistosome parasite is capable of were observed using an Axiovert A1 inverted microscope at the times indicated in the data table. Observations were codified using a defined nomenclature that involves simple “descriptors”, to convey changes in shape, motility and appearance compared to DMSO controls. Each descriptor was given a value of 1 and these were added up to yield a “severity score” with a maximum of 4. Evidence of degeneracy or death was awarded a value of 4 for adult parasites specifically, the inability to adhere to the bottom of the well using oral or ventral suckers was given a score of 1 and damage to the tegument (surface) was awarded a value of 4 on the understanding that such damage in vivo would compromise survival. Scores were averaged across the two experiments.
# HepG2-A16-CD81EGFP cells = assay: HepG2 cell cytotoxicity assay (CellTiter-Glo); format: cell-based; conditions: Homo sapiens, 72 h; for EC50: counter toxicity
# Method: HepG2-A16-CD81EGFP cells (human hepatocarcinoma HepG2 cells stably transformed to express the tetraspanin CD81 receptor [51, 52]) were cultured at 37 °C in 5% CO2 in DMEM (without phenol red; Thermo Fisher Scientific, Waltham, MA, USA) supplemented with 10% FBS, 0.29 mg/mL glutamine, 100-unit penicillin and 100 μg/mL streptomycin. For cytotoxicity assays, compounds were prepared in 12-point 1:3 serial dilutions in DMSO starting at 10 mM. Then, 50 nL of compound (0.5% final DMSO concentration) were transferred with an Acoustic Transfer System (ATS) (Biosero) into white, solid bottom 1536-well assay plates (Greiner BioOne custom GNF mold; Monroe, NC, USA). Puromycin (12-point serial dilution starting at 10 μM) and 0.5% DMSO were used as positive and negative controls, respectively. After addition of compound, HepG2-A16-CD81EGFP cells in 10 µL of the above medium (5% FBS) were seeded into the assay plates at a density of 3,000 cells per well. Assay plates were incubated at 37 °C in 5% CO2for 72 h. To assess the HepG2 viability, the assay medium was removed by inverted centrifugation of the plate at 150 xg for 30 s. Then, 2 μL per well of CellTiter-Glo reagent (Promega diluted 1:2 with deionized water) was added using a MicroFlo liquid handler (BioTek). Immediately after addition of the CellTiter-Glo reagent, the luminescence was measured with an EnVision Multilabel reader (PerkinElmer). EC50 values were calculated using the normalized bioluminescence intensity and a non-linear, variable slope, four-parameter regression curve-fitting model in Prism 5 (GraphPad Software Inc., San Diego, CA, USA).
# S. mansoni adults = assay: Phenotypic screen of S. mansoni adult worms (severity score); format: cell-based, Schistosoma mansoni; conditions: for ADULT SEVERITY SCORES @ 10 µM, 1 h / ADULT SEVERITY SCORES @ 10 µM, 5 h / ADULT SEVERITY SCORES @ 10 µM, 24 h: score 0-4; for Adult Severity Score (10 µM) 1 h / Adult Severity Score (10 µM) 5 h / Adult Severity Score (10 µM) 24 h: score 0 to 4
# Method: as §1, §2
smiles,measurement,setting,value
"CC(c1nc2ccccc2n1Cc1cn(-c2ccc(F)cc2)nn1)N1C(=O)c2ccccc2C1=O (stereo not drawn) [6y, 2-(1-(1-((1-(4-Fluorophenyl)-1H-1,2,3-triazol-4-yl)methyl)-1H-benzo[d]imidazol-2-yl)ethyl)isoindoline-1,3-dione]",Somule Severity Score (10 µM) 24 h,[1],0
same,"SOMULE SEVERITY SCORES @ 10 µM, 24",[1],0
same,"SOMULE SEVERITY SCORES @ 10 µM, 48",[1],0
same,Somule Severity Score (10 µM) 48 h,[1],0
same,"SOMULE SEVERITY SCORES @ 10 µM, 72",[1],0
same,Somule Severity Score (10 µM) 72 h,[1],0
same,IC50,HepG2-A16-CD81EGFP cells,> 100 µM
same,EC50,HepG2-A16-CD81EGFP cells,> 100 µM
same,"ADULT SEVERITY SCORES @ 10 µM, 1 h",S. mansoni adults,0
same,Adult Severity Score (10 µM) 1 h,S. mansoni adults,0
same,"ADULT SEVERITY SCORES @ 10 µM, 5 h",S. mansoni adults; 5 h,0
same,Adult Severity Score (10 µM) 5 h,S. mansoni adults; 5 h,0
same,"ADULT SEVERITY SCORES @ 10 µM, 24 h",S. mansoni adults; 24 h,0
same,Adult Severity Score (10 µM) 24 h,S. mansoni adults; 24 h,0
"CCC(C)C(c1nc2ccccc2n1Cc1cn(-c2ccc(F)cc2F)nn1)N1C(=O)c2ccccc2C1=O (stereo not drawn) [6w, 2-(1-(1-((1-(2,4-Difluorophenyl)-1H-1,2,3-triazol-4-yl)methyl)-1H-benzo[d]imidazol-2-yl)-2-methylbutyl)isoindoline-1,3-dione]",Somule Severity Score (10 µM) 24 h,[1],0
same,"SOMULE SEVERITY SCORES @ 10 µM, 24",[1],0
same,"SOMULE SEVERITY SCORES @ 10 µM, 48",[1],0
same,Somule Severity Score (10 µM) 48 h,[1],0
same,"SOMULE DESCRIPTORS @ 10 µM, 72 h",[1],pD50
same,"SOMULE SEVERITY SCORES @ 10 µM, 72",[1],2
same,Somule Severity Score (10 µM) 72 h,[1],2
same,IC50,HepG2-A16-CD81EGFP cells,> 100 µM
same,EC50,HepG2-A16-CD81EGFP cells,> 100 µM
same,"ADULT SEVERITY SCORES @ 10 µM, 1 h",S. mansoni adults,0
same,Adult Severity Score (10 µM) 1 h,S. mansoni adults,0
same,"ADULT DESCRIPTORS @ 10 µM, 5 h","S. mansoni adults; 5 h, phenotypic descriptors","Unc, on sides"
same,"ADULT SEVERITY SCORES @ 10 µM, 5 h",S. mansoni adults; 5 h,2
same,Adult Severity Score (10 µM) 5 h,S. mansoni adults; 5 h,2
same,"ADULT DESCRIPTORS @ 10 µM, 24 h","S. mansoni adults; 24 h, phenotypic descriptors","Unc, on sides"
same,"ADULT SEVERITY SCORES @ 10 µM, 24 h",S. mansoni adults; 24 h,2
same,Adult Severity Score (10 µM) 24 h,S. mansoni adults; 24 h,2
"CCC(C)C(c1nc2ccccc2n1Cc1cn(-c2ccccc2F)nn1)N1C(=O)c2ccccc2C1=O (stereo not drawn) [6v, 2-(1-(1-((1-(2-Fluorophenyl)-1H-1,2,3-triazol-4-yl)methyl)-1H-benzo[d]imidazol-2-yl)-2-methylbutyl)isoindoline-1,3-dione]",Somule Severity Score (10 µM) 24 h,[1],0
same,"SOMULE SEVERITY SCORES @ 10 µM, 24",[1],0
same,"SOMULE SEVERITY SCORES @ 10 µM, 48",[1],0
same,Somule Severity Score (10 µM) 48 h,[1],0
same,"SOMULE SEVERITY SCORES @ 10 µM, 72",[1],0
same,Somule Severity Score (10 µM) 72 h,[1],0
same,IC50,HepG2-A16-CD81EGFP cells,> 100 µM
same,EC50,HepG2-A16-CD81EGFP cells,> 100 µM
same,"ADULT SEVERITY SCORES @ 10 µM, 1 h",S. mansoni adults,0
same,Adult Severity Score (10 µM) 1 h,S. mansoni adults,0
same,"ADULT SEVERITY SCORES @ 10 µM, 5 h",S. mansoni adults; 5 h,0
same,Adult Severity Score (10 µM) 5 h,S. mansoni adults; 5 h,0
same,"ADULT SEVERITY SCORES @ 10 µM, 24 h",S. mansoni adults; 24 h,0
same,Adult Severity Score (10 µM) 24 h,S. mansoni adults; 24 h,0
"Cc1ccc(-n2cc(Cn3c(C(C)N4C(=O)c5ccc(C)cc5C4=O)nc4ccccc43)nn2)cc1 (stereo not drawn) [6i’, 5-Methyl-2-(1-(1-((1-(p-tolyl)-1H-1,2,3-triazol-4-yl)methyl)-1H-benzo[d]imidazol-2-yl)ethyl)isoindoline-1,3-dione]",melting point,,216 to 218 °C
"Cc1ccc2c(c1)C(=O)N(C(CC(C)C)c1nc3ccccc3n1Cc1cn(-c3ccccc3F)nn1)C2=O (stereo not drawn) [6i, 2-(1-(1-((1-(2-Fluorophenyl)-1H-1,2,3-triazol-4-yl)methyl)-1H-benzo[d]imidazol-2-yl)-3-methylbutyl)-5-methylisoindoline-1,3-dione]",melting point,,138 to 140 °C
"CC(C)CC(c1nc2ccccc2n1Cc1cn(-c2c(F)c(F)c(F)c(F)c2F)nn1)N1C(=O)c2ccccc2C1=O (stereo not drawn) [6l, 2-(3-Methyl-1-(1-((1-(perfluorophenyl)-1H-1,2,3-triazol-4-yl)methyl)-1H-benzo[d]imidazol-2-yl)butyl)isoindoline-1,3-dione]",melting point,,100 to 102 °C
"Cc1ccc2c(c1)C(=O)N(C(C)c1nc3ccccc3n1Cc1c[nH]nn1)C2=O (stereo not drawn) [6k’, 2-(1-(1-((1H-1,2,3-Triazol-4-yl)methyl)-1H-benzo[d]imidazol-2-yl)ethyl)-5-methylisoindoline-1,3-dione]",melting point,,100 to 102 °C
"CC(C)CC(c1nc2ccccc2n1Cc1cn(-c2ccccc2F)nn1)N1C(=O)c2ccccc2C1=O (stereo not drawn) [6n, 2-(1-(1-((1-(2-Fluorophenyl)-1H-1,2,3-triazol-4-yl)methyl)-1H-benzo[d]imidazol-2-yl)-3-methylbutyl)isoindoline-1,3-dione]",melting point,,107 to 109 °C
"CC(C)C(c1nc2ccccc2n1Cc1cn(-c2c(F)c(F)c(F)c(F)c2F)nn1)N1C(=O)c2ccccc2C1=O (stereo not drawn) [6r’, 2-(2-Methyl-1-(1-((1-(perfluorophenyl)-1H-1,2,3-triazol-4-yl)methyl)-1H-benzo[d]imidazol-2-yl)propyl)isoindoline-1,3-dione]",melting point,,170 to 172 °C
"Cc1ccc2c(c1)C(=O)N(C(CC(C)C)c1nc3ccccc3n1Cc1c[nH]nn1)C2=O (stereo not drawn) [6c, 2-(1-(1-((1H-1,2,3-Triazol-4-yl)methyl)-1H-benzo[d]imidazol-2-yl)-3-methylbutyl)-5-methylisoindoline-1,3-dione]",melting point,,150 to 152 °C
"CCC(C)C(c1nc2ccccc2n1Cc1cn(-c2c(F)cccc2F)nn1)N1C(=O)c2ccccc2C1=O (stereo not drawn) [6x, 2-(1-(1-((1-(2,6-Difluorophenyl)-1H-1,2,3-triazol-4-yl)methyl)-1H-benzo[d]imidazol-2-yl)-2-methylbutyl)isoindoline-1,3-dione]",Somule Severity Score (10 µM) 24 h,[1],0
same,"SOMULE SEVERITY SCORES @ 10 µM, 24",[1],0
same,"SOMULE SEVERITY SCORES @ 10 µM, 48",[1],0
same,Somule Severity Score (10 µM) 48 h,[1],0
same,"SOMULE DESCRIPTORS @ 10 µM, 72 h",[1],"Dark, R"
same,"SOMULE SEVERITY SCORES @ 10 µM, 72",[1],2
same,IC50,HepG2-A16-CD81EGFP cells,> 100 µM
same,EC50,HepG2-A16-CD81EGFP cells,> 100 µM
same,"ADULT SEVERITY SCORES @ 10 µM, 1 h",S. mansoni adults,0
same,Adult Severity Score (10 µM) 1 h,S. mansoni adults,0
same,"ADULT SEVERITY SCORES @ 10 µM, 5 h",S. mansoni adults; 5 h,0
same,Adult Severity Score (10 µM) 5 h,S. mansoni adults; 5 h,0
same,"ADULT SEVERITY SCORES @ 10 µM, 24 h",S. mansoni adults; 24 h,0
same,Adult Severity Score (10 µM) 24 h,S. mansoni adults; 24 h,0
"CC(C)CC(c1nc2ccccc2n1Cc1cn(-c2ccc(C(F)(F)F)cc2)nn1)N1C(=O)c2ccccc2C1=O (stereo not drawn) [6m, 2-(3-Methyl-1-(1-((1-(4-(trifluoromethyl)phenyl)-1H-1,2,3-triazol-4-yl)methyl)-1H-benzo[d]imidazol-2-yl)butyl)isoindoline-1,3-dione]",melting point,,216 to 218 °C
"CCC(C)C(c1nc2ccccc2n1Cc1cn(-c2ccncc2)nn1)N1C(=O)c2ccccc2C1=O (stereo not drawn) [6u, 2-(2-Methyl-1-(1-((1-(pyridin-4-yl)-1H-1,2,3-triazol-4-yl)methyl)-1H-benzo[d]imidazol-2-yl)butyl)isoindoline-1,3-dione]",melting point,,101 to 103 °C
"Cc1ccc2c(c1)C(=O)N(C(CC(C)C)c1nc3ccccc3n1Cc1cn(-c3ccccc3)nn1)C2=O (stereo not drawn) [6g, 5-Methyl-2-(3-methyl-1-(1-((1-phenyl-1H-1,2,3-triazol-4-yl)methyl)-1H-benzo[d]imidazol-2-yl)butyl)isoindoline-1,3-dione]",melting point,,67 to 69 °C
